Results as given in patent publication US11091498B2, “Topoisomerase poisons” (Rutgers, The State University of New Jersey, priority 2016, dated 2021).

System: KBH5.0 (a variant that overexpresses BCRP)
Assay: Test B. Efflux Assay: relative cytotoxicity, parent KB3-1 vs KBH5.0
Format: cell-based
Conditions: relative cytotoxicity between parent KB3-1 and variant KBH5.0 cell lines
Protocol: The ability of a compound described herein to be actively transported can be determined using pharmacological models that are well known in the art, for example, using a model like test B described below.
The cytotoxicity of the representative compounds of the invention were also tested against cell line KB3-1 (parent cell line), KBV-1 (a variant that overexpresses efflux transporter MDR1) and KBH5.0 (a variant that overexpresses BCRP). Differences in the relative cytotoxicity between the parent and variant cell lines may be indicative of a compound that is a substrate for an efflux transporter. […] Accordingly, compounds of the invention may be useful to treat tumors that are resistant to other anticancer agents, including anticancer agents that are susceptible to efflux by BCRP (e.g. anthracyclines, mitoxantrone, topotecan, irinotecan, bisanthrone, doxorubicin, daunorubicin, and epirubin.

SMILES: COc1cc2c(=O)n(CCN(C)C(=O)C3CCN(C)CC3)c3c4cc5c(cc4ncc3c2cc1OC)OCO5 [Example 2]
- substrate for efflux transporter BCRP: not a substrate for BCRP
